These results are taken from patent US9920013B2, “2,5-dioxoimidazolidin-1-yl-3-urea derivatives as formyl peptide modulators” (Allergan, Inc., priority 2014, dated 2018).

In the test the target is T1, FPR2 (Homo sapiens, UniProt P25090).
T1 construct: expressed in transfected cells
T1 sequence (P25090 1-351): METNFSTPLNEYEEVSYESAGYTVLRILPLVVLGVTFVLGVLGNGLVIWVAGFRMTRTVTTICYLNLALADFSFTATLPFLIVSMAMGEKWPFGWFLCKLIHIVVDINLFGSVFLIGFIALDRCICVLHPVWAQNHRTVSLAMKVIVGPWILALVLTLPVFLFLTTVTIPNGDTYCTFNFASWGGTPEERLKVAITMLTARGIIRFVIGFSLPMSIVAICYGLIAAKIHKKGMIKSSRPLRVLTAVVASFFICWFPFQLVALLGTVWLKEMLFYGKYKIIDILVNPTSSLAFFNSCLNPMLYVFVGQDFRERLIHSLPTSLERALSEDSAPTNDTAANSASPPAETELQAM
Kind of test: FPR2 calcium activity assay on FLIPR Tetra in CHO-Gα16 cells stably expressing FPR2. Particulars: for EC50: compound-induced calcium activity, 0.61 to 10,000 nM. Type of test: cell-based. The procedure: CHO-Gα16 cells stably expressing FPR2 were cultured in F12 media (10% FBS, 1% PSA, 400 μg/ml geneticin and 50 μg/ml hygromycin). In general, the day before the experiment, 18,000 cells/well were plated in a 384-well clear bottom poly-D-lysine coated plate. The following day the screening compound-induced calcium activity was assayed on a FLIPR^Tetra. The drug plates were prepared in 384-well microplates using EP3 and MultiPROBE robotic liquid handling systems. Compounds were tested at concentrations ranging from 0.61 to 10,000 nM. Results are expressed as EC50 (nM) and % efficacy values.

SMILES strings stand for the structures.

What is called EC50 is the concentration giving half of the maximal effect. Take `CC(=O)NCCNC(=O)CC1(C(C)C)NC(=O)N(NC(=O)Nc2ccc(Br)cc2)C1=O` (stereo not drawn) [Compound 1, N-[2-(Acetylamino)ethyl]-2-[1-{[(4-Bromophenyl)carbamoyl]amino}-2,5-dioxo-4-(propan-2-yl)imidazolidin-4-yl]acetamide]: the “FPR2 Gα16-CHO (%eff)” value is “(0.94)” and the EC50 came to 6 nM.

For `CC(=O)OCCNC(=O)CC1(C(C)C)NC(=O)N(NC(=O)Nc2ccc(Br)cc2)C1=O` (stereo not drawn) [Compound 3, 2-({[1-{[(4-Bromophenyl)carbamoyl]amino}-2,5-Dioxo-4-(propan-2-yl)imidazolidin-4-yl]acetyl}amino)ethyl acetate], the “FPR2 Gα16-CHO (%eff)” value is “(0.97)” and the EC50 was 10 nM.

As to `CC(=O)OCCNC(=O)CC1(C(C)C)NC(=O)N(NC(=O)Nc2ccc(Br)cc2F)C1=O` (stereo not drawn) [Compound 2, 2-({[1-{[(4-Bromo-2-Fluorophenyl)carbamoyl]amino}-2,5-dioxo-4-(propan-2-yl)imidazolidin-4-yl]acetyl}amino)ethyl acetate], the “FPR2 Gα16-CHO (%eff)” value is reported as “(0.94)” and the EC50 amounted to 4 nM.
